Measured values reported in patent US10829798B2, “DNA-linked enzyme-coupled assays” (THE REGENTS OF THE UNIVERSITY OF CALIFORNIA, priority 2014, dated 2020).

Biological target: T1, OleD (Streptomyces antibioticus, UniProt Q53685, P55A/R82V/R83E/T84P)
T1 construct: made in house; host or cells: PURExpress In Vitro Protein Synthesis Kit (NEB E6800L), cell-free transcription/translation, linear DNA with T7 promoter
Assay: DLEnCA with purified recombinant OleD, agarose gel readout of MfeI digestion of probe DNA
Assay type: biochemical
Conditions: purified OleD 0.5 μM, acceptor 0.5 mM, 2% agarose gel
Protocol: FIG. 2A-FIG. 2D. DNA-Linked Enzyme-Coupled Assay using purified model enzyme (OleD). A. The OleD-catalyzed glucosylation of kaempferol using UDP-Glc as a donor-molecule. B. Purified recombinant OleD (0.5 μM) was incubated with probe DNA (4.5 nM) in the presence of kaempferol (0.5 mM) and various concentrations of UDP-Glc at 37° C. for 1 hour. Following incubation with TbGT, DNA was digested with MfeI. Digests were analyzed on a 2% agarose gel. […] (ii) A representative gel of the UDP-Glc titration reaction, as-well-as a “ladder” depicting expected DNA digestion sizes, is shown. C. […] Digests were analyzed on a 2% agarose gel (n=4). […] Digests were analyzed on a 2% agarose gel (n=4). […]
In order to verify that DNA protection using TbGT could be used to follow an enzymatic reaction under conditions amenable to downstream DNA analyses, the ability of recombinant OleD to reduce concentrations of UDP-Glc while in the presence of the substrate kaempferol was first tested. […] To identify if this reaction could be monitored by modification of DNA, recombinant OleD was purified (FIG. 5) and incubated with 5-hm-cytosine-modified probe DNA (4.5 nM probe DNA containing 2.5 μM modified 5-hm-cytosines), kaempferol (0.5 mM), and UDP-Glc concentrations varying from 10 μM to 1 mM in a buffered solution. […]

T1 sequence (Q53685 other isoform, or with tags, fused parts or gaps P55A/R82V/R83E/T84P): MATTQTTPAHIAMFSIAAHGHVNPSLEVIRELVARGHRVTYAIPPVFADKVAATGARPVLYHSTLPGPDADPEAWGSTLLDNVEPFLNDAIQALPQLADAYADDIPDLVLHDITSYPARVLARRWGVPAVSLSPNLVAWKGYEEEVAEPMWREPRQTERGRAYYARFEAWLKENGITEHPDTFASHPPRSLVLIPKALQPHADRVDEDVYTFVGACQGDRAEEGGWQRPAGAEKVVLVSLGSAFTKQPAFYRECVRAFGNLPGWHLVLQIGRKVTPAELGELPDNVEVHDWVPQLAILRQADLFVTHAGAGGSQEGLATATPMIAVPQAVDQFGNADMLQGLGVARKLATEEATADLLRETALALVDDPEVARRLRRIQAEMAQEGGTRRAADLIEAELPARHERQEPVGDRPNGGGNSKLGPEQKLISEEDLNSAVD

Compound	digestion of probe DNA by MfeI (loss of TbGT protection) (20 μM starting UDP-Glc, all components present)	digestion of probe DNA by MfeI (loss of TbGT protection) (UDP-Glc titration)
O=c1c(O)c(-c2ccc(O)cc2)oc2cc(O)cc(O)c12 [I, kaempferol]	significant DNA digestion occurred	–
O=C(O)c1ccc(O)cc1 [XI, 4-hydroxybenzoic acid]	–	no DNA was digested
